Results taken from BindingDB's records for doi:10.1021/bi050490d (Case Western Reserve University, 2005).

Molecular target: Kappa-type opioid receptor (Homo sapiens, UniProt P41145)
Sequence (P41145 whole entry): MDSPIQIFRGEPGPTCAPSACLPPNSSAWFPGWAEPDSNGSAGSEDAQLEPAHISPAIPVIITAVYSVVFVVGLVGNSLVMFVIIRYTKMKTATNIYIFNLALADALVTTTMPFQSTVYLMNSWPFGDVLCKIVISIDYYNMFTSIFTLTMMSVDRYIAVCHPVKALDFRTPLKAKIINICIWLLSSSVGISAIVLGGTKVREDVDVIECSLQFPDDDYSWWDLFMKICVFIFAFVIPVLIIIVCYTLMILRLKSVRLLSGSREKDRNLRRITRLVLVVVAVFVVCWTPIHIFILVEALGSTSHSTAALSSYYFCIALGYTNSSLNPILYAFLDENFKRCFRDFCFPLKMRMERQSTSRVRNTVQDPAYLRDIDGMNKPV

CC[C@H](C)[C@H](NC(=O)[C@H](CCCNC(=N)N)NC(=O)[C@H](CCCNC(=N)N)NC(=O)[C@H](CC(C)C)NC(=O)[C@H](Cc1ccccc1)NC(=O)CNC(=O)CNC(=O)[C@@H](N)Cc1ccc(O)cc1)C(=O)N[C@@H](CCCNC(=N)N)C(=O)N1CCC[C@H]1C(=O)N[C@@H](CCCCN)C(=O)N[C@@H](CC(C)C)C(=O)N[C@@H](CCCCN)C(=O)O [Dynorphin A (1-13)]
Ki: 343 nM
